Measured values taken from publication PMC8770518, “Evolutionary alterations in gene expression and enzymatic activities of gibberellin 3-oxidase 1 in Oryza” (Communications Biology, 2022).

Assays:
OsGA3ox2 = molecular target: T1, OsGA3ox2 (Oryza sativa, UniProt Q9FU53); experiment: X-ray crystallography, […] A; type: binding; conditions: Fe(II) omitted, active site
T1 construct: gene GA3OX2; crystallised without Fe(II)

GID1 = molecular target: T2, GID1 (Oryza sativa, UniProt Q6L545); experiment: yeast two-hybrid GID1-SLR1 interaction (-His growth); type: cell-based; conditions: GA-dependent interaction with SLR1; GA 1e-10 to 1e-5 M
T2 construct: yeast two-hybrid fusions: GID1 bait in pGBKT7, SLR1 prey in pGADT7; with DELLA protein SLR1
T2 sequence (Q6L545 1-354): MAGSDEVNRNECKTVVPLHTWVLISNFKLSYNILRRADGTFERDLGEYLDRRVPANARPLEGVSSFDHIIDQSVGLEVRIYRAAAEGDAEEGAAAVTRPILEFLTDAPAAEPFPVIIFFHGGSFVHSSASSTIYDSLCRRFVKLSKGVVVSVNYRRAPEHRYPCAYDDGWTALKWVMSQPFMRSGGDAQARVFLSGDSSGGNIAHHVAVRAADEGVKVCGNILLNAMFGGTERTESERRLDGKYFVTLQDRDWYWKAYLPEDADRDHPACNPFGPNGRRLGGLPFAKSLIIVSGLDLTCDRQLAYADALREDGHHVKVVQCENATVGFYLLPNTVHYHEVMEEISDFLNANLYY
T2 sequence (Q7G7J6 1-625 partner): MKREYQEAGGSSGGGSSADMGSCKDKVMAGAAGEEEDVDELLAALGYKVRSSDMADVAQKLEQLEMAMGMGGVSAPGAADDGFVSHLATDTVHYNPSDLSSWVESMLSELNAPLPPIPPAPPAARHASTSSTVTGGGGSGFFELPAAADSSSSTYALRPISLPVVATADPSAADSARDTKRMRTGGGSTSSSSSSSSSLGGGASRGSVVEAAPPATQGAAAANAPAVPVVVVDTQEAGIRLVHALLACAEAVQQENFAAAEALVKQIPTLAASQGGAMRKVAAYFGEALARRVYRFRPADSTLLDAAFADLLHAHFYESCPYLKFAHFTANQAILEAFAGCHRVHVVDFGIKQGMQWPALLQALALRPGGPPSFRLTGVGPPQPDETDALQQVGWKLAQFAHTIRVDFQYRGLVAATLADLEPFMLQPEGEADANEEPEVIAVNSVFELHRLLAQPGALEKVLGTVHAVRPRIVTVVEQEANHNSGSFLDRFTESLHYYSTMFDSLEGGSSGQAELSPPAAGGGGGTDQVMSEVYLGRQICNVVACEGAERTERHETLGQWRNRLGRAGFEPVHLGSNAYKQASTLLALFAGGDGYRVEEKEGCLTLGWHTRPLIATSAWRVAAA

OsGA3ox1 [1] = molecular target: T3, OsGA3ox1 (Oryza sativa, UniProt Q6AT12); experiment: in vitro 3-oxidation, gas chromatography of products; type: biochemical; conditions: products GA4 and GA7
T3 construct: gene GA3OX1

OsGA3ox1 [2] = molecular target: T4, OsGA3ox1 (Oryza sativa, UniProt Q6AT12, F235Y); experiment: as above; type: biochemical; conditions: products GA4 and GA7
T4 construct: gene GA3OX1
T4 sequence (Q6AT12 1-384 F235Y): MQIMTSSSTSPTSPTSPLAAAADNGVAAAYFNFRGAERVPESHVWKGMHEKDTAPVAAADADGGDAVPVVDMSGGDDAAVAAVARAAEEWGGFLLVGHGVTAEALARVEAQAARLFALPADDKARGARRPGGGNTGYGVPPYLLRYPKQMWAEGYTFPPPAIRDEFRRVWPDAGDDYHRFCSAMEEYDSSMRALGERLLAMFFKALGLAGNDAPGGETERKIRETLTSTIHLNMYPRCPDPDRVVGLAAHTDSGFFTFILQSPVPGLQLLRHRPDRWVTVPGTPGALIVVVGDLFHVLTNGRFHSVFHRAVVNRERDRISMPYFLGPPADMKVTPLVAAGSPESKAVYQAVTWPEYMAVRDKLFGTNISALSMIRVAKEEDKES

T1 sequence (Q9FU53 whole entry): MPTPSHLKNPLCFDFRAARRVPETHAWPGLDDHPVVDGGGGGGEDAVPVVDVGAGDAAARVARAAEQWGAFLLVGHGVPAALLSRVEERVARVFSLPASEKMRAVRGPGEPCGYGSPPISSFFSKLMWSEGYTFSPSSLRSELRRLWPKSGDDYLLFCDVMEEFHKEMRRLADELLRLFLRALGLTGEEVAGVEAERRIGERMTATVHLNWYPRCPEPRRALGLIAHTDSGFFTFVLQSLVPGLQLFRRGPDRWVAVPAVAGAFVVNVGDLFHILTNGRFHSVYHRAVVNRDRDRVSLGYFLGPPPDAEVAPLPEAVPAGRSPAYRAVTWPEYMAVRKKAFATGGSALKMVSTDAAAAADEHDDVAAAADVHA
T3 sequence (Q6AT12 whole entry): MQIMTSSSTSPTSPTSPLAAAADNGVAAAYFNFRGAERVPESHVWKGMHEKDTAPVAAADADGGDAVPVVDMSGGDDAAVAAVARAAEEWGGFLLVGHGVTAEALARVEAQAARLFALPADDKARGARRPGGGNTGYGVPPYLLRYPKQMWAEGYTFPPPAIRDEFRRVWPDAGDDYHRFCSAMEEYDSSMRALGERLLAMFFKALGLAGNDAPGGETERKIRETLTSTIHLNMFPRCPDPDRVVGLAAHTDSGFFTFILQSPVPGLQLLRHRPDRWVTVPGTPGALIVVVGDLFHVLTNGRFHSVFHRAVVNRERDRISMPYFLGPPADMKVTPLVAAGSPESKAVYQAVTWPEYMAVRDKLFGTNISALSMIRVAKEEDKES

For O=C(O)CCC(=O)C(=O)O [2-oxoglutarate], the “X-ray crystallography, 1.9 A” value (OsGA3ox2; complex with GA9, 10 mM 2-oxoglutarate, pH 7.0) was “structure of the OsGA3ox2 complex with (co-) substrates; GA9 and 2-oxoglutarate (2OG)”.
In the case of C=C1C[C@]23C[C@H]1CC[C@H]2[C@@]12CC[C@H](O)[C@@](C)(C(=O)O1)[C@H]2[C@@H]3C(=O)O [GA4], the “yeast two-hybrid GID1-SLR1 interaction (-His growth)” value (GID1) is reported as “GA7 showed the highest efficiency among all GA ligands, followed by GA4”.
For C=C1C[C@]23C[C@H]1CC[C@H]2[C@@]12C=C[C@H](O)[C@@](C)(C(=O)O1)[C@H]2[C@@H]3C(=O)O [GA7], the “yeast two-hybrid GID1-SLR1 interaction (-His growth)” value (GID1) was “GA7 showed the highest efficiency among all GA ligands, followed by GA4”.
C=C1C[C@]23C[C@H]1CC[C@H]2[C@@]12CCC[C@@](C)(C(=O)O1)[C@H]2[C@@H]3C(=O)O [GA9] was tested, and the “in vitro 3-oxidation, gas chromatography of products” value (OsGA3ox1 [1]) was “GA biosynthesis activities of recombinant OsGA3ox1 and OsGA3ox2 for GA9 as a substrate”, the “in vitro 3-oxidation, gas chromatography of products” value (OsGA3ox1 [2]) was “The productivity of GA7 was lower in F235Y-OsGA3ox1 than that in OsGA3ox1” and the “X-ray crystallography, 1.9 A” value (OsGA3ox2; complex with 2-oxoglutarate, 0.5 mM GA9, pH 7.0) was “structure of the OsGA3ox2 complex with (co-) substrates; GA9 and 2-oxoglutarate (2OG)”.
